# Experiment: recombinant barcode read abundance after kanamycin selection (control-corrected) (log10(CPM+1)); higher = more efficient recombination; sequences stand for … in AGTGCAGAGAAAATCGGCCAGTTTTCTCTGCCTGCAGTCCGCATGCCGT…ATTTATGCAGCGGACTGCCTTTCTCCCAAAGTGATAAACCGGACAGTATCATGGACCGGTTTTCCCGGTAATCCGTATTTGCAAGGTTGGTTTCACT; site = the 11-nt target
# How it was run: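 In a pooled screen in E. coli, targets were paired with target-binding loops of the IS621 bridge RNA. Each oligo carried a promoter, a target, a barcode and the first 104 bridge RNA bases driven by J23119, and was Gibson-cloned into a vector holding the remaining 73 bp and a T7-inducible recombinase before co-electroporation with a donor plasmid. Duplicate platings went onto chloramphenicol/ampicillin LB agar as the control or onto chloramphenicol/ampicillin/kanamycin with 0.1 mM IPTG. Recombination efficiency is the averaged, control-corrected count per million of barcodes at recombinant junctions, given as log10(CPM+1).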
sequence,measurement,value
"TTATAAATCTGGGTTCTAACCTGTTGCCTGA [TTATAAACTAG_LTGcore_TC_RTGcore_TC] (site TTATAAACTAG) (LTG core: TC, RTG core: TC)",recombinant barcode read abundance (log10),0.244

# Reference: the supplement of paper PMC11208160
